From patent US10556926B2, “Synthetic artificial peptides with antimicrobial effect” (priority 2014, dated 2020)
Values after ≈ are worked out from the molar mass of the structure shown. No end group written: not given here.

Tests used:
E. coli DH5α = conditions: MHB, 18 hours at 37° C.; mean of four test series
How it was run: (§1)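 Broth microdilution MIC per CLSI/EUCAST, adapted for cationic peptides, in Mueller-Hinton broth. Peptides at final 64 to 0.25 μM (2-fold series) with 5·10^4 bacteria/ml, 18 h at 37° C with shaking; growth read as absorbance at 600 nm.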

Staphylococcus xylosus = conditions: MHB, 18 hours at 37° C.; mean of four test series
How it was run: as §1

E. coli ML-35p = assay: Kinetics of permeabilization of the outer bacteria membrane (nitrocefin); format: cell-based, Escherichia coli
Method: The ability of the antimicrobial peptides for the respective permeabilization of the outer and inner bacteria membrane was tested by way of example on E. coli ML-35p (made available by Dr. R. E. Lehrer, Center for Health Sciences, Los Angeles, Calif., USA). The peptides were incubated in serial dilution with E. coli ML-35p and the time-dependent release of cell-internal components was measured in a slightly modified protocol according to Ericsson et al. (2002). For this purpose, the bacteria were cultured in Luria-Bertani (LB) medium with 100 μg/ml ampicillin (Fluka, Taufkirchen, Germany) until reaching an optical density of 0.4 at 600 nm wavelength. Then, the cells were washed three times by centrifugation at 4000 g for 1 min and subsequent up-take in 10 mM HEPES buffer pH 7.2. Finally, the cells were diluted to an optical density of 0.3 at 600 nm wavelength. To measure the permeabilization of the outer membrane, nitrocefin (Merck, Darmstadt, Germany) was diluted in HEPES buffer to a concentration of 60 μg/ml. The antimicrobial peptides were diluted in HEPES buffer to an end concentration of 12 μM, 24 μM, 48 μM and 96 μM end concentration. In the next step, 50 μl of nitrocefin were admixed with 50 μl of antimicrobial peptide and 50 μl of bacteria suspension such that an end concentration of 20 μg/ml of nitrocefin, 4 μM to 32 μM of antimicrobial peptide and bacteria with an optical density of 0.1 to 600 nm were present. The samples were mixed and the absorption at 500 nm wavelength was measured directly over a period of at least 90 min at 37° C. with regular shaking in a FLUOstar omega Microplate Reader (BMG Labtech, Ortenberg, Germany). The investigation of the permeabilization of the inner membrane was carried out in the same way except that instead of the nitrocefin accordingly 0-nitrophenyl-beta-D-galactoside (ONPG, Sigma-Aldrich) in an end concentration of 100 μg/ml was used and the absorption change was determined at a wavelength of 420 nm. The control used was samples without antimicrobial peptide, the positive control used for the membrane permeabilization was polymyxin B (Sigma-Aldrich) in an end concentration of 5 μM. For the data evaluation, firstly the measurement values of the corresponding negative controls were deducted from the measurement values of the samples, and the difference was then divided by the corresponding measurement values of the permeabilization control. Then, a graphical evaluation was carried out, the calculated values being plotted against the peptide concentration and being fitted with the help of the Origin Pro 8.1 G Software (OriginLab) according to a sigmoidal model.
As comparison parameter between the peptides, the times were ascertained from this at which 50% of the final signal level was reached. For this purpose, the equation with the percentage membrane permeabilization y, the time x in minutes, the lower plateau A1, the upper plateau A2, the point of inflection Log X0 and the Hill incline p
[formula] was used. The calculation of the parameters A1, A2, Log X0 and p was performed by the program by reference to the compensating curve. Further resolution of equation 5.1 for the case y=50 then produced for x the desired time at which the half-maximum signal level was reached.

Compound	MIC E. coli (E. coli DH5α)	MIC S. xylosus (Staphylococcus xylosus)	Outer membrane, time to 50% of final signal (E. coli ML-35p; 4 μM peptide)	Outer membrane, time to 50% of final signal (E. coli ML-35p; 8 μM peptide)	Outer membrane, time to 50% of final signal (E. coli ML-35p; 16 μM peptide)	Outer membrane, time to 50% of final signal (E. coli ML-35p; 32 μM peptide)
CC[C@H](C)[C@H](NC(=O)CN)C(=O)NCC(=O)N[C@@H](C)C(=O)N[C@H](C(=O)N[C@@H](CC(C)C)C(=O)N[C@@H](CCCCN)C(=O)N[C@H](C(=O)N[C@@H](CC(C)C)C(=O)N[C@H](C(=O)N[C@H](C(=O)NCC(=O)N[C@@H](CC(C)C)C(=O)N1CCC[C@H]1C(=O)N[C@@H](C)C(=O)N[C@@H](CC(C)C)C(=O)N[C@H](C(=O)N[C@@H](CO)C(=O)N[C@@H](Cc1c[nH]c2ccccc12)C(=O)N[C@H](C(=O)N[C@@H](CCCCN)C(=O)N[C@@H](CCCNC(=N)N)C(=O)N[C@@H](CCCCN)C(=O)N[C@@H](CCCNC(=N)N)C(=O)N[C@@H](CCC(N)=O)C(=O)N[C@@H](CCC(N)=O)C(N)=O)[C@@H](C)CC)[C@@H](C)CC)[C@@H](C)O)[C@@H](C)O)C(C)C)C(C)C [Melittin]	8 µM (≈ 22.8 µg/mL)	2 µM (≈ 5.69 µg/mL)				
ILPWKWPWWPWRR [Indolicidin]	4 µM	32 µM	>90 min	>90 min	>90 min	>90 min
KILILIKRK-OH [N4]	32 µM	16 µM	54 min	49 min	31 min	17 min
KRKRKILILIKRK-OH [N1]	8 µM	0.5 µM	21 min	14 min	12 min	11 min
MPRRRRSSSRPVRRRRRPRVSRRRRRRGGRRR (Protamine) [protamine from salmon, grade IV, histone-free (Sigma-Aldrich)]	8 µM	0.5 µM	<1 min	<1 min	<1 min	<1 min
